Measured values reported in ChEMBL document CHEMBL6092156, “Design and development of a series of 4-(piperazin-1-yl)pyrimidines as irreversible menin inhibitors” (Eur J Med Chem, 2024).
In brackets after ≈: the same amount, converted by molar mass. Activity calls are given as the source filed them. The calls are words filed in the database; no cut-off is given here.

Experiments:
MV4-11 [1] = assay: Downregulation of MEIS1 expression level in human MV4-11 cells at 10 uM incubated for 48 hrs by qRT-PCR analysis; assay type: functional, cell-based
[2] = Suppression of MEN1 gene transcription in human MV4-11 cells assessed as protein synthesis by measuring fold change at 10 uM incubated for 48 hrs in presence of 50 ug/ml cycloheximide relative to control; assay type: functional
MV4-11 [3] = assay: Antitumor activity against human MV4-11 cells xenografted in nu/nu mouse model assessed as tumor growth rate at 20 mg/kg, ip bid for 15 days measured twice a week during compound dosing by caliper method relative to control; assay type: functional; conditions: time 15 day
MV4-11 [4] = assay: Antiproliferative activity against human MV4-11 cells assessed as reduction in cell viability incubated for 7 days and measured after compound washout; assay type: functional, cell-based; conditions: time 7.0 day
HL-60 = assay: Antiproliferative activity against human HL-60 cells assessed as cell growth inhibition incubated for 7 days by MTS assay; assay type: functional, cell-based; conditions: HL-60, 168 h
MV4-11 [5] = assay: Antiproliferative activity against human MV4-11 cells assessed as reduction in cell viability preincubated for 7 days and followed by compound washout and measured on day 14 after compound readdition; assay type: functional, cell-based; conditions: time 21.0 day
[6] = test system: Acute myeloid leukemic cell; assay: Induction of cell differentiation in human acute myeloid leukemia patient-derived cells assessed as increase in CD11b at 150 nM incubated for 7 days by cytoFLEX flow cytometric analysis; assay type: functional, cell-based; conditions: time 7.0 day
[7] = Observed AUCinfinity in female ICR mouse at 5 mg/kg, ip by LC-MS/MS analysis; assay type: ADME, organism-based; conditions: in vivo
REH [8] = assay: Downregulation of MEIS1 expression level in human REH cells at 10 uM incubated for 48 hrs by qRT-PCR analysis; assay type: functional, cell-based
[9] = Solubility of compound in water by HPLC analysis; assay type: physicochemical
[10] = Antiproliferative activity against human MINO cells assessed as cell growth inhibition incubated for 7 days by MTS assay; assay type: functional, cell-based; conditions: 168 h
[11] = Toxicity in nu/nu mouse model assessed as body weight loss at 10 to 20 mg/kg, ip bid for 15 days measured twice a week during compound dosing; assay type: organism-based; conditions: in vivo, 360 h, dose 10-20 mg/kg, time 15 day
MV4-11 [12] = assay: Downregulation of HOXA9 expression level in human MV4-11 cells at 10 uM incubated for 48 hrs by qRT-PCR analysis; assay type: functional, cell-based
[13] = Suppression of MEN1 gene transcription in human MV4-11 cells assessed as protein synthesis by measuring fold change at 10 uM incubated for 24 hrs in presence of 50 ug/ml cycloheximide relative to control; assay type: functional
MOLM-14 = assay: Antiproliferative activity against human MOLM-14 cells harboring MLL-AF9 assessed as cell growth inhibition incubated for 7 days by MTS assay; assay type: functional, cell-based; conditions: MOLM-14, 168 h
REH [14] = assay: Antiproliferative activity against human REH cells assessed as cell growth inhibition incubated for 7 days by MTS assay; assay type: functional, cell-based; conditions: 168 h
MV4-11 [15] = assay: Antiproliferative activity against human MV4-11 cells assessed as reduction in cell viability at 80 nM preincubated for 7 days and followed by compound washout and measured on day 14 after compound readdition relative to control; assay type: functional; conditions: time 21 day
RS4-11 = assay: Antiproliferative activity against human RS4;11 cells harboring MLL-AF4 assessed as cell growth inhibition incubated for 7 days by MTS assay; assay type: functional, cell-based; conditions: RS4-11, 168 h
REH [16] = assay: Downregulation of HOXA9 expression level in human REH cells at 10 uM incubated for 48 hrs by qRT-PCR analysis; assay type: functional, cell-based
[17] = Suppression of MEN1 gene transcription in human MV4-11 cells assessed as protein synthesis by measuring fold change at 10 uM incubated for 48 hrs in presence of 20 nM carfilzomib relative to control; assay type: functional
MV4-11 [18] = assay: Antiproliferative activity against human MV4-11 cells harboring MLL-AF4 assessed as cell growth inhibition incubated for 7 days by MTS assay; assay type: functional, cell-based; conditions: MV4-11, 168 h
[19] = Tmax in female ICR mouse at 5 mg/kg, ip by LC-MS/MS analysis; assay type: ADME, organism-based; conditions: in vivo
[20] = Suppression of MEN1 gene transcription in human MV4-11 cells assessed as protein synthesis by measuring fold change at 10 uM incubated for 36 hrs in presence of 50 ug/ml cycloheximide relative to control; assay type: functional
MV4-11 [21] = assay: Suppression of MEN1 gene transcription in human MV4-11 cells incubated for 48 hrs by relative gene expression assay; assay type: functional, cell-based
MV4-11 [22] = assay: Inhibition of menin protein expression in human MV-4-11 cells measured after 48 hrs incubation by Western blot analysis; assay type: functional, cell-based; conditions: dose 1-37 µM
[23] = Cmax in female ICR mouse at 5 mg/kg, ip by LC-MS/MS analysis; assay type: ADME, organism-based; conditions: in vivo
MV4-11 [24] = assay: Antiproliferative activity against human menin-sensitive MV4-11 cells assessed as inhibition of cell growth incubated for 7 days by MTS assay; assay type: functional, cell-based; conditions: MV4-11, 168 h
[25] = molecular target: Menin/Histone-lysine N-methyltransferase MLL (Homo sapiens, UniProt O00255); assay: Inhibition of menin (unknown origin)/N-terminal FITC-labeled MLL1 peptide (unknown origin) interaction incubated for 30 min by fluorescence polarization assay; assay type: protein assay
[26] = Observed MRTinfinity in female ICR mouse at 5 mg/kg, ip by LC-MS/MS analysis; assay type: ADME, organism-based; conditions: in vivo
MV4-11 [27] = assay: Antiproliferative activity against human MV4-11 cells assessed as reduction in cell viability at 50 nM incubated for 7 days and measured after compound washout relative to control; assay type: functional; conditions: time 7 day
REH [28] = assay: Antiproliferative activity against human menin-insensitive REH cells assessed as inhibition of cell growth incubated for 7 days by MTS assay; assay type: functional, cell-based; conditions: 168 h
[29] = Suppression of MEN1 gene transcription in human MV4-11 cells assessed as protein synthesis by measuring fold change at 10 uM incubated for 48 hrs relative to control; assay type: functional
MV4-11 [30] = assay: Antitumor activity against human MV4-11 cells xenografted in ip treated nu/nu mouse model assessed as tumor growth inhibition measured upto 15 days; assay type: functional, organism-based; conditions: dose 10-20 mg/kg, time <= 15.0 day
MOLM-13 = assay: Antiproliferative activity against human MOLM-13 cells harboring MLL-AF9 assessed as cell growth inhibition incubated for 7 days by MTS assay; assay type: functional, cell-based; conditions: MOLM-13, 168 h
MV4-11 [31] = assay: Antitumor activity against human MV4-11 cells xenografted in nu/nu mouse model assessed as tumor growth rate at 10 mg/kg, ip bid for 15 days measured twice a week during compound dosing by caliper method relative to control; assay type: functional; conditions: time 15 day
[32] = AUClast in female ICR mouse at 5 mg/kg, ip by LC-MS/MS analysis; assay type: ADME, organism-based; conditions: in vivo
[33] = Half life in female ICR mouse at 5 mg/kg, ip by LC-MS/MS analysis; assay type: ADME, organism-based; conditions: in vivo
[34] = Cytotoxicity against human PBMC cells assessed as cell viability incubated for 7 days by MTS assay; assay type: toxicity, cell-based
MV4-11 [35] = assay: Antiproliferative activity against human MV4-11 cells assessed as reduction in cell viability at 100 nM preincubated for 7 days and followed by compound washout and measured on day 14 after compound readdition; assay type: functional, cell-based; conditions: time 21.0 day
[36] = Suppression of MEN1 gene transcription in human MV4-11 cells assessed as protein synthesis by measuring fold change at 10 uM incubated for 12 hrs in presence of 50 ug/ml cycloheximide relative to control; assay type: functional

Sequence of Menin/Histone-lysine N-methyltransferase MLL (O00255 whole entry): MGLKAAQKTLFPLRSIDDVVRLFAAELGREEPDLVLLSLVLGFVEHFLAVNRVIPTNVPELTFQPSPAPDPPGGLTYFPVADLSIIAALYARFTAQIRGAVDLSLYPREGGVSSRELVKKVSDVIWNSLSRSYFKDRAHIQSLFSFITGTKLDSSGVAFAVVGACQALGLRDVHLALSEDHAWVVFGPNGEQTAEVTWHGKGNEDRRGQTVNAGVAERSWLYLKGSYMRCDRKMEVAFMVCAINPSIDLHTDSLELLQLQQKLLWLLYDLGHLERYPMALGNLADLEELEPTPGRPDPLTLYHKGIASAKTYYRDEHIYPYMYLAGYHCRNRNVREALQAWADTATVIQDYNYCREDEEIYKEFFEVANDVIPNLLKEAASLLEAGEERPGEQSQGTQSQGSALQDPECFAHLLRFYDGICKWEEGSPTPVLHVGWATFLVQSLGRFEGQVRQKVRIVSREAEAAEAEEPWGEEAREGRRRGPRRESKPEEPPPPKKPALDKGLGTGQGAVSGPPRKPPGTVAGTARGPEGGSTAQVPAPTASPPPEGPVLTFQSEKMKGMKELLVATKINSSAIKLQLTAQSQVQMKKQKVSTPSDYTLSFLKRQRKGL
Sequence of Menin/Histone-lysine N-methyltransferase MLL (Q03164 1-2718 partner limits assumed): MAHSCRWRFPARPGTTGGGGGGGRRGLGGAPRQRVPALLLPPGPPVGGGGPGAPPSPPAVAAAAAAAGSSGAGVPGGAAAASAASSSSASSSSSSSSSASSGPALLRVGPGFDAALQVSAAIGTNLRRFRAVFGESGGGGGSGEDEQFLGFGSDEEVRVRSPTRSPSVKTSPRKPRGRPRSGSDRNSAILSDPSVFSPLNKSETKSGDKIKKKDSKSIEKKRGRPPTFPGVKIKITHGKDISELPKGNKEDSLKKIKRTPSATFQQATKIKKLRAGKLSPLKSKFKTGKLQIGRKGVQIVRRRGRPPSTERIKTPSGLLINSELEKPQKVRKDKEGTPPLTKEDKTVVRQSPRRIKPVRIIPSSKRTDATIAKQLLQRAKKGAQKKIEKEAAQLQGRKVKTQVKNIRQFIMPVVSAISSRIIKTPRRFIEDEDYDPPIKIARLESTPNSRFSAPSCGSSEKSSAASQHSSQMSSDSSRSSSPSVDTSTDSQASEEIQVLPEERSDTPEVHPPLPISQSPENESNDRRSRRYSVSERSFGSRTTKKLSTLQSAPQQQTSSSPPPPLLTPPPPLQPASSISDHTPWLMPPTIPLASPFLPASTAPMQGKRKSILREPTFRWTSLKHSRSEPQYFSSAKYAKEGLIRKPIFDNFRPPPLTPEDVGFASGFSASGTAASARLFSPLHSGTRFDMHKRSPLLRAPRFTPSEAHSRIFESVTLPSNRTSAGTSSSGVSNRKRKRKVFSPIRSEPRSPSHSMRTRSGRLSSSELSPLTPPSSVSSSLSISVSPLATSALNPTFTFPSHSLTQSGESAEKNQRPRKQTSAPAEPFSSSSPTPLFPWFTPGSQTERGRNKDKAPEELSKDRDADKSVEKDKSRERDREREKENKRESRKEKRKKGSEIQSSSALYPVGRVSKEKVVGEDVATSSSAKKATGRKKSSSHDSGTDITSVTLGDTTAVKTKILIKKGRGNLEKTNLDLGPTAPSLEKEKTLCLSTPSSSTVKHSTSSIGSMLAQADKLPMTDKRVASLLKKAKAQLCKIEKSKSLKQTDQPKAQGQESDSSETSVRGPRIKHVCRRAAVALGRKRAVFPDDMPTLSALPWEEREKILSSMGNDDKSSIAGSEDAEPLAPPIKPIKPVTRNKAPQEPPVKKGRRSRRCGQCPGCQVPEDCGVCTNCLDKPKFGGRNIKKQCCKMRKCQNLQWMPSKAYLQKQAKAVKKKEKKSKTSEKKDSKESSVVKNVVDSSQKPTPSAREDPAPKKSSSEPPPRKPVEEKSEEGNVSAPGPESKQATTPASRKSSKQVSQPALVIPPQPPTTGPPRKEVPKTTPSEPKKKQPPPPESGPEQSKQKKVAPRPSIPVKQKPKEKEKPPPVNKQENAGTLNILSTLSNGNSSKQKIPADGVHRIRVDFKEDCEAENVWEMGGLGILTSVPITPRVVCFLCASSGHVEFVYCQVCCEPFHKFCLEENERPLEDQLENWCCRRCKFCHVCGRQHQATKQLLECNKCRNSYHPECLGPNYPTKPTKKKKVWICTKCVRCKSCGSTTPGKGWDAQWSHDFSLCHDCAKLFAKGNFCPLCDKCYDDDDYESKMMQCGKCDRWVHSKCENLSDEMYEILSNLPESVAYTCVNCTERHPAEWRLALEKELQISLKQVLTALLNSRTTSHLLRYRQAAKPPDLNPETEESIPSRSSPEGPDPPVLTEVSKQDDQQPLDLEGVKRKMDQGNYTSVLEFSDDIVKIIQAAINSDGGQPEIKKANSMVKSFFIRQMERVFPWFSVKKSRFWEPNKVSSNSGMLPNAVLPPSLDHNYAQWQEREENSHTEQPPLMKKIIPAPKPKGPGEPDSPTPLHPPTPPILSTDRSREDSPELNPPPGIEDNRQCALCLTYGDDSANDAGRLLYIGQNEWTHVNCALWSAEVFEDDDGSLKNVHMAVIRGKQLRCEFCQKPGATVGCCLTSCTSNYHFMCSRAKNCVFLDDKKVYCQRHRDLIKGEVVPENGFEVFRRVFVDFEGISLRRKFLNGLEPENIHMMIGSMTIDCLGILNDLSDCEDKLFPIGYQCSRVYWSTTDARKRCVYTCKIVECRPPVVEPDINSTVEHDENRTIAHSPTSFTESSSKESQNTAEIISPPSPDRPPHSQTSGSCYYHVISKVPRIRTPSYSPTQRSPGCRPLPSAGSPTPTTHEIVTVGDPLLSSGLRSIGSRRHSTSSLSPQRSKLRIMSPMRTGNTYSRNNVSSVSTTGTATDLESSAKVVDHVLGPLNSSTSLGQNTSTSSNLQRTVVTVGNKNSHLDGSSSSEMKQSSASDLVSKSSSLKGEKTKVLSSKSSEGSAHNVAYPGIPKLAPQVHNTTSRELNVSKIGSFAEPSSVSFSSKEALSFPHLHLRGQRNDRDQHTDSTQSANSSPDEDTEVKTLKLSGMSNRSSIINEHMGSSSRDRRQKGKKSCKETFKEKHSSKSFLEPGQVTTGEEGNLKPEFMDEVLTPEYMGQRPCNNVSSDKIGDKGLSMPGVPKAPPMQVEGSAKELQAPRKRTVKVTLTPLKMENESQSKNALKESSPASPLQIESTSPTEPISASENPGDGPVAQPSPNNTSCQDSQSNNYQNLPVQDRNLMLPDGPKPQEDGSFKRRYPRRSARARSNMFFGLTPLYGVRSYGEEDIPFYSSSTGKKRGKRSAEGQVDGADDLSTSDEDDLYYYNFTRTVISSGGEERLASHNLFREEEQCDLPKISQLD
Sequence of Menin/Histone-lysine N-methyltransferase MLL (Q03164 2719-3969 partner limits assumed): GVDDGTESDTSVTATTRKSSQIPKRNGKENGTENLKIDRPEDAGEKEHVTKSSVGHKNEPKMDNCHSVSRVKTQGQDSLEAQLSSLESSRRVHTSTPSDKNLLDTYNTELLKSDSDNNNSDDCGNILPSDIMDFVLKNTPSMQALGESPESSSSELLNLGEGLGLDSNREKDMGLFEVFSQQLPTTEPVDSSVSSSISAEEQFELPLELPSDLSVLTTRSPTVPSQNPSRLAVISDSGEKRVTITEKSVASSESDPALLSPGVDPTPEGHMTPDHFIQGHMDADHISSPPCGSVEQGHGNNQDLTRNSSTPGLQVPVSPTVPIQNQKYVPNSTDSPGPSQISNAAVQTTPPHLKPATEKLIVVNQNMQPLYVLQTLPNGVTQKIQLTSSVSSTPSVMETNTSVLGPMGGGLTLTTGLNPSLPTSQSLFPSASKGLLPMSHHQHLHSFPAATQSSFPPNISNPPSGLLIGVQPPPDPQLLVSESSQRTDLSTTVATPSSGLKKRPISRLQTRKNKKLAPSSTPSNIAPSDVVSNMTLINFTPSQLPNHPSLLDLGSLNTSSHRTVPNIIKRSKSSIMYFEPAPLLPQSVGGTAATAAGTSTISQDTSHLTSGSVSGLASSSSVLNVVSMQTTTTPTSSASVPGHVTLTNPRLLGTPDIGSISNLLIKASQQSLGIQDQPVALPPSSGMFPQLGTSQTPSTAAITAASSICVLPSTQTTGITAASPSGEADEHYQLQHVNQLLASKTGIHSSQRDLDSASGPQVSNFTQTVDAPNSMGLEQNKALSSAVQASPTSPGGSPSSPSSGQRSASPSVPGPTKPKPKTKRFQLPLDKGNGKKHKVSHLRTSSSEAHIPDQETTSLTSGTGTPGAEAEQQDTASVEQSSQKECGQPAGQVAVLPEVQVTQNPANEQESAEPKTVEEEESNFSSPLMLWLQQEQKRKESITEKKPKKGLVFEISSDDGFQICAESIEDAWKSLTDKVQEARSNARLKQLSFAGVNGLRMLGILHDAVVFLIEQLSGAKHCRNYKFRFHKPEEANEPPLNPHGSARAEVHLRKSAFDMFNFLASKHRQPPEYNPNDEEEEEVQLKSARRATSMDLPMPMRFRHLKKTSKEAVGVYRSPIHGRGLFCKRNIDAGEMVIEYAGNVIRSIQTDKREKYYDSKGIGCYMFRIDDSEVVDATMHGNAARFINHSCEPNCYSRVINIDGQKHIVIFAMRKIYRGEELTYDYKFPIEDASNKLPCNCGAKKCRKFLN

CCN(C(=O)c1cc(F)ccc1Nc1cncnc1N1CCN(CC2CN(c3ccc(S(=O)(=O)C4CN(C(=O)/C=C/CN(C)C)C4)cc3)C2)C(C)C1)C(C)C (stereo not given)
Activity (MV4-11 [1]): Active
fold change (FC) [2]: 0.25
Activity (MV4-11 [3]): 35.85%
Activity (MV4-11 [4]): inactive
IC50 (HL-60): > 3000 nM
Activity (MV4-11 [5]): Dose-dependent-effect
Activity [6]: Active
AUC(0-inf) [7]: 1230 ng·h/mL
Activity (REH [8]): Active; Little Impact Observed
solubility [9]: 1230 µg/mL (≈ 1590 µM)
IC50 [10]: > 3000 nM
Activity [11]: Non-toxic
Activity (MV4-11 [12]): Active
fold change (FC) [13]: 0.31
IC50 (MOLM-14): 103 nM
IC50 (REH [14]): > 3000 nM
Activity (MV4-11 [15]): 100%
IC50 (RS4-11): 272 nM
Activity (REH [16]): Active; Little Impact Observed
fold change (FC) [17]: 0.14
IC50 (MV4-11 [18]): 49 nM
Tmax [19]: 0.25 h
fold change (FC) [20]: 0.21
Activity (MV4-11 [21]): Active
Activity (MV4-11 [22]): Dose-dependent-effect; Significantly Greater Inhibition At 10 Um Than That Of Sndx-5613
Cmax [23]: 980 ng/mL
IC50 (MV4-11 [24]): 30 nM
IC50 [25]: 18.2 nM
MRT inf [26]: 1.85 h
Activity (MV4-11 [27]): 100%
IC50 (REH [28]): 8400 nM
fold change (FC) [29]: 0.08
Activity (MV4-11 [30]): Dose-dependent-effect
IC50 (MOLM-13): 221 nM
Activity (MV4-11 [31]): 55.64%
AUC(0-t) [32]: 1150 ng·h/mL
half-life [33]: 1.59 h
IC50 at 7 days [34]: > 3000 nM
Activity (MV4-11 [35]): Active
fold change (FC) [36]: 0.69
